The assay concerns the target T1, human ΔF508-CFTR (Homo sapiens, UniProt P13569, DEL508-508).
T1 construct: expressed in transfected cells
The experiment in a line: CFTR-YFP High Throughput Assay (YFP halide flux in FRT cells). The format is cell-based. Conditions: FRT cells expressing human ΔF508-CFTR and YFP; forskolin stimulated. Here is the method:
Assays for Detecting and Measuring the Effect of Compounds on dF508-CFTR Channels CFRT-YFP High Throughput Assay:
The following protocol is designed to selectively screen small molecule compounds for F508del CFTR corrector activities in the HTS YFP flux assay. In this protocol, the cells are incubated with testing compounds for 24 hours, washed with PBS, stimulated with forskolin and a standard potentiator, and read on a 384-well HTS plate reader, such as the Hamamatsu FDDD-6000.
YFP fluorescence intensity is acquired at high speed before and after iodide buffer is injected to the assay cells. Iodide enters the cells via active CFTR channels in the plasma membrane, and quenches the YFP fluorescence. The rate of fluorescence quenching is proportionally related to the total CFTR activities in the cell membrane. dF508-CFTR corrector accelerates YFP quenching by increasing the number of CFTR molecules in the testing cell plasma membrane.
This method was initially developed for bench top plate readers (Galietta et al., 2001), and was adapted to the HTS format (Sui et al. Assay Drug Dev. Technol. 2010).
Fisher Rat Thyroid (FRT) cells stably expressing both human AF508-CFTR and a halide-sensitive yellow fluorescent protein (YFP—H148Q/1152L 25, 22) (Galietta et al., Am. J. Physiol Cell Physiol 281(5), C1734, 2001) were cultured on plastic surface in Coon's modified Ham's F12 medium supplemented with FBS 10%, L-glutamine 2 mM, penicillin 100 U/mL, and streptomycin 100 μg/mL. G418 (0.75-1.0 mg/mL) and zeocin (3.2 ug/mL) were used for selection of FRT cells expressing ΔF508-CFTR and YFP. For primary screening, FRT cells were plated into 384-well black wall, transparent bottom microtiter plates (Costar; Corning Inc.) at a cell density of 20,000-40,000 per well. Test compound was applied to the cells at varying concentrations ranging from […] in either a 2-fold or 3-fold dilution series. Cells were incubated in a cell culture incubator at 37° C. with 5% CO2 for 24-26 h. Assay plates were washed with DPBS media (Thermo, cat# SH30028.02) to remove unbound cells and compound. Stimulation media (25 μL) containing 20 μM Forskolin & 30 μM P3 [6-(Ethyl-phenyl-sulfonyl)-4-oxo-1,4-dihydro-quinoline-3-carboxylic acid 2-methoxy-benzylamide] in Hams F-12 coon's modified media was added to the plate wells and incubated at room temperature for 60-120 min. 25 μL of HEPES-PBS-I buffer (10 mM HEPES, 1 mM MgCl2, 3 mM KCl, 1 mM CaCl2, 150 mM NaI) was then added and fluorescence quench curves (Excitation 500 nm/Emission 540 nm; exposure 136 ms) were immediately recorded on an FDSS-6000 plate reader (Hamamatsu). Quench rates were derived from least squares fitting of the data as described by Sui et al., (2010).
The following protocol is designed to selectively screen small molecule compounds for F508del CFTR potentiator activities in the HTS YFP flux assay. In this protocol, the cells are incubated at 27 C for 24 hours with homogeneously boosted dF508-CFTR expression in the cell membrane by the low temperature, washed with PBS, stimulated with forskolin, and read on a 384-well HTS plate reader, such as the Hamamatsu FDDD-6000.
YFP fluorescence intensity is acquired at high speed before and after iodide buffer is injected to the assay cells. Iodide enters the cells via active CFTR channels in the plasma membrane, and quenches the YFP fluorescence. The rate of fluorescence quenching is proportionally related to the total CFTR activities in the cell membrane. dF508del-CFTR potentiators accelerate YFP quenching by increasing CFTR activities in the testing cell plasma membrane.
Fisher Rat Thyroid (FRT) cells stably expressing both human ΔF508-CFTR and a halide-sensitive yellow fluorescent protein (YFP-H148Q/I152L 25, 22) (Galietta et al., Am. J. Physiol Cell Physiol 281(5), C1734, 2001) were cultured on plastic surface in Coon's modified Ham's F12 medium supplemented with FBS 10%, L-glutamine 2 mM, penicillin 100 U/mL, and streptomycin 100 μg/mL. […]

pEC50: −log10 of the molar value.

T1 sequence (P13569 with tags, fused parts or gaps DEL508-508): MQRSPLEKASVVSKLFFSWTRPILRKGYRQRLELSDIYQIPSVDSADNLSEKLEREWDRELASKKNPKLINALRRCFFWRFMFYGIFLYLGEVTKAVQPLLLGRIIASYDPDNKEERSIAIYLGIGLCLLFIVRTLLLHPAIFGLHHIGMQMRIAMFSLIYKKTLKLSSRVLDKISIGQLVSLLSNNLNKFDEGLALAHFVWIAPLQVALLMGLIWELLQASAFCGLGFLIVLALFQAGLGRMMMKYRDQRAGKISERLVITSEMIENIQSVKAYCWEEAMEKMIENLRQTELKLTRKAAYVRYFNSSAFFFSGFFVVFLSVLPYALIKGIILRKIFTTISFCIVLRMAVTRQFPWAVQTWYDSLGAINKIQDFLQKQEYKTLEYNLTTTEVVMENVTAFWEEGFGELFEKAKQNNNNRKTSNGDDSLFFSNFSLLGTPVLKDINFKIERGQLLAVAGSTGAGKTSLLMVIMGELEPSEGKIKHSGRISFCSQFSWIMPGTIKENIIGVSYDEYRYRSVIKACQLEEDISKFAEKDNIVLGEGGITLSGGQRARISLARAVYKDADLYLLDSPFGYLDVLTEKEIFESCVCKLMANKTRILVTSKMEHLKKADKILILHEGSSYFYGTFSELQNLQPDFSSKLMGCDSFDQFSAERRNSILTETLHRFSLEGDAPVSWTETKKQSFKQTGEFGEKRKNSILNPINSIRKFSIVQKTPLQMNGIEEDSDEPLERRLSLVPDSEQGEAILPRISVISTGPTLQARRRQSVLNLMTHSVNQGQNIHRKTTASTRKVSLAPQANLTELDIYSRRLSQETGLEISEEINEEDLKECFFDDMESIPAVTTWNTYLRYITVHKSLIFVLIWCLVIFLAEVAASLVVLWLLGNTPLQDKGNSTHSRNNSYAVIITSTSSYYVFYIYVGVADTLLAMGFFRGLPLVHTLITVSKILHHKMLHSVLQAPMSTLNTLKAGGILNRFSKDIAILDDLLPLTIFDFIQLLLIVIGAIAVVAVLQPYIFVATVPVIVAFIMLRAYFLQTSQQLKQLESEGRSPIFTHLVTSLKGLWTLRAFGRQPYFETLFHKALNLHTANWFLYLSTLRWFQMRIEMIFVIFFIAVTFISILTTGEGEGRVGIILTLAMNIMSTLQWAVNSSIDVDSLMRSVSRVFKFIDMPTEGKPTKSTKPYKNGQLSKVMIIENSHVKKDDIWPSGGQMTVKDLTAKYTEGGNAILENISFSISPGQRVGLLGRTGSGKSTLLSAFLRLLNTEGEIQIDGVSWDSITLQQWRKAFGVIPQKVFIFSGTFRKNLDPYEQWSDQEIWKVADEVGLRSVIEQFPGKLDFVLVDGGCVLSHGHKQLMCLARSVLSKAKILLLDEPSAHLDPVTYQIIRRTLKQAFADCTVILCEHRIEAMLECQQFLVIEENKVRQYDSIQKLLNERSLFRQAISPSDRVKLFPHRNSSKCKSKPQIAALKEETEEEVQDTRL

The term pEC50 denotes −log10 of the EC50, conventionally taken in molar units. For the molecule `CCc1ccc(N(CC)C(=O)Cn2nc(Cc3cccnc3)c3ccc(OC)cc3c2=O)cc1` [Example 35, N-ethyl-N-(4-ethylphenyl)-2-(7-methoxy-1-oxo-4-(pyridin-3-ylmethyl)phthalazin-2(1H)-yl)acetamide], the pEC50 is more than 5.00.

As for `CCc1ccc(N(CC)C(=O)Cn2nc(Cc3cccnc3)c3cc(OC)ccc3c2=O)cc1` [Example 36, N-ethyl-N-(4-ethylphenyl)-2-(6-methoxy-1-oxo-4-(pyridin-3-ylmethyl)phthalazin-2(1H)-yl)acetamide], the pEC50 was more than 5.00.

Turning to `CCc1ccc(N(CC)C(=O)Cn2nc(Cc3cccnc3)c3cccc(F)c3c2=O)cc1` [Example 37, N-ethyl-N-(4-ethylphenyl)-2-(8-fluoro-1-oxo-4-(pyridin-3-ylmethyl)phthalazin-2(1H)-yl)acetamide], the pEC50 was more than 5.00.

Regarding `CCc1ccc(N(CC)C(=O)Cn2nc(Cc3cccnc3)c3cc(Cl)c(Cl)cc3c2=O)cc1` [Example 38, 2-(6,7-dichloro-1-oxo-4-(pyridin-3-ylmethyl)phthalazin-2(1H)-yl)-N-ethyl-N-(4-ethylphenyl)acetamide], the pEC50 was less than 4.70.

For the molecule `CCc1ccc(N(CC)C(=O)Cn2nc(Cc3cccnc3)c3ccc(Cl)cc3c2=O)cc1` [Example 39, 2-(7-chloro-1-oxo-4-(pyridin-3-ylmethyl)phthalazin-2(1H)-yl)-N-ethyl-N-(4-ethylphenyl)acetamide], the pEC50 was more than 5.00.

Turning to `CCc1ccc(N(CC)C(=O)Cn2nc(Cc3cccnc3)c3cc(Cl)ccc3c2=O)cc1` [Example 40, 2-(6-chloro-1-oxo-4-(pyridin-3-ylmethyl)phthalazin-2(1H)-yl)-N-ethyl-N-(4-ethylphenyl)acetamide], the pEC50 is more than 5.00.

`CCc1ccc(N(CC)C(=O)Cn2nc(Cc3cccnc3)c3ccncc3c2=O)cc1` [Example 41, N-ethyl-N-(4-ethylphenyl)-2-(4-oxo-1-(pyridin-3-ylmethyl)pyrido[3,4-d]pyridazin-3(4H)-yl)acetamide]: the negative-log EC50 (pEC50) is less than 4.70.

Turning to `CCc1ccc(N(CC)C(=O)Cn2nc(Cc3cccnc3)c3cnccc3c2=O)cc1` [Example 42, N-ethyl-N-(4-ethylphenyl)-2-(1-oxo-4-(pyridin-3-ylmethyl)pyrido[3,4-d]pyridazin-2(1H)-yl)acetamide], the pEC50 was less than 4.70.

Turning to `CCc1ccc(N(CC)C(=O)Cn2nc(Cc3cccnc3)c3ncccc3c2=O)cc1` [Example 43, N-ethyl-N-(4-ethylphenyl)-2-(5-oxo-8-(pyridin-3-ylmethyl)pyrido[2,3-d]pyridazin-6(5H)-yl)acetamide], the pEC50 was 4.70 to 5.00.

As for `CCN(C(=O)Cn1nc(Cc2cccnc2)c2cc(OC)c(OC)cc2c1=O)c1ccc2c(c1)OC(F)(F)O2` [Example 44], the pEC50 was more than 5.00.

With `CCN(C(=O)Cn1nc(Cc2cccnc2)c2ccc(C)cc2c1=O)c1ccc2c(c1)OC(F)(F)O2` [Example 45, N-(2,2-difluorobenzo[d][1,3]dioxol-5-yl)-N-ethyl-2-(7-methyl-1-oxo-4-(pyridin-3-ylmethyl)phthalazin-2(1H)-yl)acetamide], the pEC50 is more than 5.00.

For `CCN(C(=O)Cn1nc(Cc2cccnc2)c2cc(C)ccc2c1=O)c1ccc2c(c1)OC(F)(F)O2` [Example 46, N-(2,2-difluorobenzo[d][1,3]dioxol-5-yl)-N-ethyl-2-(6-methyl-1-oxo-4-(pyridin-3-ylmethyl)phthalazin-2(1H)-yl)acetamide], the pEC50 is more than 5.00.

Consider `CCN(C(=O)Cn1nc(Cc2cccnc2)c2cccc(C)c2c1=O)c1ccc2c(c1)OC(F)(F)O2` [Example 47, N-(2,2-difluorobenzo[d][1,3]dioxol-5-yl)-N-ethyl-2-(8-methyl-1-oxo-4-(pyridin-3-ylmethyl)phthalazin-2(1H)-yl)acetamide], for which the pEC50 is more than 5.00.

`CCN(C(=O)Cn1nc(Cc2cccnc2)c2c(C)cccc2c1=O)c1ccc2c(c1)OC(F)(F)O2` [Example 48, N-(2,2-difluorobenzo[d][1,3]dioxol-5-yl)-N-ethyl-2-(5-methyl-1-oxo-4-(pyridin-3-ylmethyl)phthalazin-2(1H)-yl)acetamide]: the pEC50 is more than 5.00.

Turning to `CCN(C(=O)Cn1nc(Cc2cccnc2)c2cc(C(C)(C)C)ccc2c1=O)c1ccc2c(c1)OC(F)(F)O2` [Example 49, 2-(6-(tert-butyl)-1-oxo-4-(pyridin-3-ylmethyl)phthalazin-2(1H)-yl)-N-(2,2-difluorobenzo[d][1,3]dioxol-5-yl)-N-ethylacetamide], the pEC50 was more than 5.00.

`CCN(C(=O)Cn1nc(Cc2cccnc2)c2ccc(C(C)(C)C)cc2c1=O)c1ccc2c(c1)OC(F)(F)O2` [Example 50, 2-(7-(tert-butyl)-1-oxo-4-(pyridin-3-ylmethyl)phthalazin-2(1H)-yl)-N-(2,2-difluorobenzo[d][1,3]dioxol-5-yl)-N-ethylacetamide]: the pEC50 is more than 5.00.

In the case of `CCN(C(=O)Cn1nc(Cc2cccnc2)c2cc(OC)ccc2c1=O)c1ccc2c(c1)OC(F)(F)O2` [Example 51, N-(2,2-difluorobenzo[d][1,3]dioxol-5-yl)-N-ethyl-2-(6-methoxy-1-oxo-4-(pyridin-3-ylmethyl)phthalazin-2(1H)-yl)acetamide], the pEC50 was more than 5.00.

Consider `CCN(C(=O)Cn1nc(Cc2cccnc2)c2ccc(OC)cc2c1=O)c1ccc2c(c1)OC(F)(F)O2` [Example 52, N-(2,2-difluorobenzo[d][1,3]dioxol-5-yl)-N-ethyl-2-(7-methoxy-1-oxo-4-(pyridin-3-ylmethyl)phthalazin-2(1H)-yl)acetamide], for which the pEC50 was more than 5.00.

On to `CCN(C(=O)Cn1nc(Cc2cccnc2)c2cc(Cl)ccc2c1=O)c1ccc2c(c1)OC(F)(F)O2` [Example 53, 2-(6-chloro-1-oxo-4-(pyridin-3-ylmethyl)phthalazin-2(1H)-yl)-N-(2,2-difluorobenzo[d][1,3]dioxol-5-yl)-N-ethylacetamide], for which the pEC50 was more than 5.00.

For `CCN(C(=O)Cn1nc(Cc2cccnc2)c2ccc(Cl)cc2c1=O)c1ccc2c(c1)OC(F)(F)O2` [Example 54, 2-(7-chloro-1-oxo-4-(pyridin-3-ylmethyl)phthalazin-2(1H)-yl)-N-(2,2-difluorobenzo[d][1,3]dioxol-5-yl)-N-ethylacetamide], the pEC50 was more than 5.00.

In the case of `CCN(C(=O)Cn1nc(Cc2cccnc2)c2cccc(OC)c2c1=O)c1ccc2c(c1)OC(F)(F)O2` [Example 55, N-(2,2-difluorobenzo[d][1,3]dioxol-5-yl)-N-ethyl-2-(8-methoxy-1-oxo-4-(pyridin-3-ylmethyl)phthalazin-2(1H)-yl)acetamide], the pEC50 is more than 5.00.

With `CCN(C(=O)Cn1nc(Cc2cccnc2)c2c(OC)cccc2c1=O)c1ccc2c(c1)OC(F)(F)O2` [Example 56, N-(2,2-difluorobenzo[d][1,3]dioxol-5-yl)-N-ethyl-2-(5-methoxy-1-oxo-4-(pyridin-3-ylmethyl)phthalazin-2(1H)-yl)acetamide], the pEC50 was more than 5.00.

As for `CCOc1cccc2c(Cc3cccnc3)nn(CC(=O)N(CC)c3ccc4c(c3)OC(F)(F)O4)c(=O)c12` [Example 57, N-(2,2-difluorobenzo[d][1,3]dioxol-5-yl)-N-ethyl-2-(8-ethoxy-1-oxo-4-(pyridin-3-ylmethyl)phthalazin-2(1H)-yl)acetamide], the pEC50 was more than 5.00.

Turning to `CCOc1cccc2c(=O)n(CC(=O)N(CC)c3ccc4c(c3)OC(F)(F)O4)nc(Cc3cccnc3)c12` [Example 58, N-(2,2-difluorobenzo[d][1,3]dioxol-5-yl)-N-ethyl-2-(5-ethoxy-1-oxo-4-(pyridin-3-ylmethyl)phthalazin-2(1H)-yl)acetamide], the pEC50 is 4.70 to 5.00.

For the origin of these results see patent publication US9790215B2 (FLATLEY DISCOVERY LAB, LLC, priority 2013, dated 2017).
